According to patent US10800790B2, “Sesquiterpenoid STAT3 inhibitors” (University of Hawaii, priority 2013, dated 2020):

Assays:
[1] = test system: MDA-MB-231 breast cancer cells; assay: CyQuant cell viability/proliferation assay, MDA-MB-231; format: cell-based, human; conditions: for Inhibition of breast cancer MDA-MB-231, in words: 72-h treatment, FIG. 10; for MDA-MB-231 % inhibition / inhibition at 5 µM: at 5 μM, 72 h, Table 3 numbering (isolates 1-16); for inhibition at 5 µM: Homo sapiens, MDA-MB-231
Description: (§1) The cell viability assay was performed as previously reported (Zhang X, et al. (2010)). Briefly, a 10 millimolar concentration stock solution in dimethylsulfoxide (DMSO) of the tested molecule was first prepared. Next, the stock solution was diluted down to various working solutions in water. Thus, a formulation of the tested compound in a DMSO/water mixture was used to test for cell viability. (A novel small-molecule disrupts STAT3 SH2 domainphosphotyrosine interactions and STAT3-dependent tumor processes, Biochem Pharmacol 79:1398-1409; Zhao W, Jaganathan S, & Turkson J (2010), A cell-permeable STAT3 SH2 domain mimetic inhibits STAT3 activation and induces antitumor cell effects in vitro. J Biol Chem. 285:35855-35865). Cells (U251MG, MDA-MB-231 or NIH3T3) were obtained from ATCC (Manassas, Va.) and were cultured in 96-well plates at 2,000 cells per well for 24 h and were treated with compounds (5 micromolar concentration) for 72 h. Cell viabilty was determined using CyQuant assay, according to the manufacturer's (Invitrogen, CA, USA) instructions. Relative viability of the treated cells was normalized to the DMSO-treated control cells.

[2] = test system: U251MG glioblastoma cells; assay: CyQuant cell viability/proliferation assay, U251MG; format: cell-based, human; design: key to Activity against U251: +, active; −, no activity; +/−, poorly active; conditions: for Inhibitory potency compared with 22 (CyQuant): 72-h treatment, FIG. 10, synthetic derivatives of 22; for U251MG % inhibition / inhibition at 5 µM: at 5 μM, 72 h; for U251MG % inhibition / Inhibitory effect on viability of U251MG (tumor) cells, in words / inhibition at 5 µM: Table 3 numbering (isolates 1-16); for Inhibitory effect on viability of U251MG (tumor) cells, in words: 5 micromolar; for inhibition at 5 µM: Homo sapiens, U-251; for Activity against U251: Table 1 grade, Table 1/FIG. 2 compound numbering
Description: as §1

[3] = test system: pY705STAT3 in U251MG or MDA-MB-231 cells; assay: Immunoblotting of pY705STAT3 in treated tumor cells; conditions: 5 micromolar, U251MG or MDA-MB-231; for Effect on pY705STAT3 / STAT3 activity (immunoblot), in words: 0-24 h, Table 1/FIG. 2 numbering
Description: Positions of STATs:DNA complexes or proteins in gel are labeled; control lanes (0) represent nuclear extracts or whole-cell lysates prepared from 0.05% DMSO-treated cells. Data are representative of at least three to four independent determinations.
Lysates of equal total protein prepared in the lysis buffer (50 mM Hepes, pH 7.5, 150 mM NaCl, 2 mM EDTA, 1% Triton X-100, 0.1% SDS), were subjected to IP or Western blotting analysis. Antibodies against STAT3, pY705STAT3, Src, pY416Src, Erk1/2, and pT202/Y204Erk1/2 and GAPDH (Cell Signaling Technology, Danvers, Mass.), and anti-β-actin, and HSP105 (Santa Cruz Biotechnology, Dallas, Tex.) are from the designated sources.
Whole-cell lysates were prepared in boiling SDS sample loading buffer to extract total proteins, as reported previously. […] Nitrocellulose membranes were probed with primary antibodies, and the detection of horseradish peroxidase-conjugated secondary antibodies by enhanced chemiluminescence (Amersham) was performed. Antibodies used were monoclonal anti-pYSTAT3 and anti-STAT3 antibodies (Cell Signaling Technology, Danvers, Mass.).

[4] = test system: normal NIH3T3 mouse fibroblasts; assay: CyQuant cell viability/proliferation assay, NIH3T3; format: cell-based; conditions: Table 3 numbering (isolates 1-16); for NIH-3T3 % inhibition / inhibition at 5 µM: at 5 μM, 72 h; for inhibition at 5 µM: Mus musculus, NIH3T3, read-out: NIH-3T3 % inhibition
Description: as §1

C/C=C(\C)C(=O)OCC1=C2/C(=C\C3(C)CCC(OC)(O3)[C@H](C)C[C@@H]2OC(=O)/C(C)=C/C)OC1=O (stereo partly drawn) [zmm-1-37, (4S,6R,E)-7-methoxy-6,10-dimethyl-3-((((E)-2-methylbut-2-enoyl)oxy)methyl)-2-oxo-2,4,5,6,7,8,9,10-octahydro-7,10-epoxycyclodeca[b]furan-4-yl(E)-2-methylbut-2-enoate]
Inhibition of breast cancer MDA-MB-231, in words [1]: also inhibited breast cancer, MDA-MB-231 | Inhibitory potency compared with 22 (CyQuant) [2]: retained the inhibitory potency as 22 | Effect on pY705STAT3 / STAT3 activity (immunoblot), in words [3]: inhibited pY705STAT3

8α-(4-hydroxytigloyloxy)-hirsutinolide [Compound 3]
MDA-MB-231 % inhibition [1]: ne (ne, no effect inhibition) | U251MG % inhibition [2]: ne (ne, no effect inhibition) | NIH-3T3 % inhibition [4]: ne (ne, no effect inhibition)

CC(C)=CCCC(C)CC(=O)OCC1=C2/C(=C\C3(C)CCC(O)(O3)[C@H](C)C[C@@H]2O)OC1=O (stereo partly drawn) [zmm-1-22, ((4S,6R,E)-4,7-dihydroxy-6,10-dimethyl-2-oxo-2,4,5,6,7,8,9,10-octahydro-7,10-epoxycyclodeca[b]furan-3-yl)methyl 3,7-dimethyloct-6-enoate]
Inhibitory potency compared with 22 (CyQuant) [2]: retained the inhibitory potency as 22 | Effect on pY705STAT3 / STAT3 activity (immunoblot), in words [3]: inhibited pY705STAT3

CC=C(C)C(=O)OC1CC(C)C2(O)CCC(C)(C=C3OC(=O)C(CO)=C31)O2 (stereo not drawn) [Compound 1, 8α-(2′Z-tigloyloxy)hirsutinolide]
MDA-MB-231 % inhibition [1]: ne (ne, no effect inhibition) | U251MG % inhibition [2]: ne (ne, no effect inhibition) | NIH-3T3 % inhibition [4]: ne (ne, no effect inhibition)

C[C@@H]1C[C@H](O)C2=C(COC(=O)CCc3ccccc3)C(=O)O/C2=C/C2(C)CCC1(O)O2 (stereo partly drawn) [zmm-1-82, ((4S,6R,E)-4,7-dihydroxy-6,10-dimethyl-2-oxo-2,4,5,6,7,8,9,10-octahydro-7,10-epoxycyclodeca[b]furan-3-yl)methyl 3-phenylpropanoate]
Inhibitory potency compared with 22 (CyQuant) [2]: retained the inhibitory potency as 22

C[C@@H]1C[C@H](O)C2=C(COC(=O)/C=C/c3ccc(F)cc3)C(=O)O/C2=C/C2(C)CCC1(O)O2 (stereo partly shown) [zmm-1-78]
Inhibition of breast cancer MDA-MB-231, in words [1]: also inhibited breast cancer, MDA-MB-231

CCC(C)C(=O)OCC1=C2/C(=C\C3(C)CCC(O)(O3)[C@H](C)C[C@@H]2O)OC1=O (stereo partly drawn) [zmm-1-18, ((4S,6R,E)-4,7-dihydroxy-6,10-dimethyl-2-oxo-2,4,5,6,7,8,9,10-octahydro-7,10-epoxycyclodeca[b]furan-3-yl)methyl 2-methylbutanoate]
Effect on pY705STAT3 / STAT3 activity (immunoblot), in words [3]: showed little effects on pY705STAT3

C[C@@H]1C[C@H](O)C2=C(COC(=O)C=Cc3ccccc3)C(=O)O/C2=C/C2(C)CCC1(O)O2 (stereo partly drawn) [zmm-1-19, ((4S,6R,E)-4,7-dihydroxy-6,10-dimethyl-2-oxo-2,4,5,6,7,8,9,10-octahydro-7,10-epoxycyclodeca[b]furan-3-yl)methyl cinnamate]
Inhibitory potency compared with 22 (CyQuant) [2]: retained the inhibitory potency as 22 | Effect on pY705STAT3 / STAT3 activity (immunoblot), in words [3]: inhibited pY705STAT3

8α-(2′Z-tigloyloxy)hirsutinolide-13-O-acetate [Compound 2]
MDA-MB-231 % inhibition [1]: ne (ne, no effect inhibition) | Inhibitory effect on viability of U251MG (tumor) cells, in words [2]: weak inhibitory effect | U251MG % inhibition [2]: 48.6% | Inhibition of pY705STAT3 (immunoblot), in words ([3]; Table 3 numbering (isolates 1-16)): inhibited STAT3 phosphorylation | NIH-3T3 % inhibition [4]: 8.0%

C[C@@H]1C[C@H](O)C2=C(COC(=O)/C=C/c3ccc(C(F)(F)F)cc3)C(=O)O/C2=C/C2(C)CCC1(O)O2 (stereo partly shown) [zmm-1-79]
Inhibitory potency compared with 22 (CyQuant) [2]: retained the inhibitory potency as 22

CC1(C)C[C@H](O)C[C@@]2(C)OC(=O)C=C12 [Compound 12, loliolide]
inhibition at 5 µM [1]: < 6% | inhibition at 5 µM [2]: < 6% | inhibition at 5 µM [4]: < 6%

CC=C(C)C(=O)OC1CC(C)C2(OC)CCC(C)(C=C3OC(=O)C(CO)=C31)O2 (stereo not shown) [Compound 17]
Activity against U251 [2]: −

O=c1cc(-c2ccc(O)cc2)oc2cc(O)cc(O)c12 [Compound 15, apigenine]
inhibition at 5 µM [1]: < 6% | inhibition at 5 µM [2]: < 6% | inhibition at 5 µM [4]: < 6%

CC(=CCO)C(=O)OC1CC(C)C2(O)CCC(C)(C=C3OC(=O)C(CO)=C31)O2 (stereo not shown) [Compound 21]
Activity against U251 [2]: −

C/C=C(\C)C(=O)O[C@H]1C[C@@H](C)C2(OC)CCC(C)(/C=C3/OC(=O)C(COC(=O)C=Cc4ccccc4)=C31)O2 (stereo partly drawn) [zmm-1-72, (4S,6R,E)-3-((cinnamoyloxy)methyl)-7-methoxy-6,10-dimethyl-2-oxo-2,4,5,6,7,8,9,10-octahydro-7,10-epoxycyclodeca[b]furan-4-yl(E)-2-methylbut-2-enoate]
Inhibitory potency compared with 22 (CyQuant) [2]: retained the inhibitory potency as 22

C=C(C)C(=O)OC1CC(C)C2(O)CCC(C)(C=C3OC(=O)C(CO)=C31)O2 (stereo not drawn) [Compound 5, 8α-(2-methylacryloyloxy)-hirsutinolide]
MDA-MB-231 % inhibition [1]: ne (ne, no effect inhibition) | U251MG % inhibition [2]: ne (ne, no effect inhibition) | NIH-3T3 % inhibition [4]: ne (ne, no effect inhibition)

C/C=C(\C)C(=O)OCC1=C2/C(=C\C3(C)CCC(O)(O3)[C@H](C)C[C@@H]2OC(=O)/C(C)=C/C)OC1=O (stereo partly drawn) [zmm-1-36, (4S,6R,E)-7-hydroxy-6,10-dimethyl-3-((((E)-2-methylbut-2-enoyl)oxy)methyl)-2-oxo-2,4,5,6,7,8,9,10-octahydro-7,10-epoxycyclodeca[b]furan-4-yl(E)-2-methylbut-2-enoate]
Inhibitory potency compared with 22 (CyQuant) [2]: retained the inhibitory potency as 22 | Cell-type selectivity of growth inhibition, in words ([2]; U251MG versus other cells incl. NIH3T3, Table 1/FIG. 2 numbering): lost cell-type specificity | Effect on pY705STAT3 / STAT3 activity (immunoblot), in words [3]: inhibited pY705STAT3

CC(C)=CCCC(C)=CC(=O)OCC1=C2/C(=C\C3(C)CCC(O)(O3)[C@H](C)C[C@@H]2O)OC1=O (stereo partly drawn) [zmm-1-20, ((4S,6R,E)-4,7-dihydroxy-6,10-dimethyl-2-oxo-2,4,5,6,7,8,9,10-octahydro-7,10-epoxycyclodeca[b]furan-3-yl)methyl 3,7-dimethylocta-2,6-dienoate]
Inhibitory potency compared with 22 (CyQuant) [2]: retained the inhibitory potency as 22 | Effect on pY705STAT3 / STAT3 activity (immunoblot), in words [3]: inhibited pY705STAT3

CC(C)=CC(=O)OCC1=C2/C(=C\C3(C)CCC(O)(O3)[C@H](C)C[C@@H]2O)OC1=O (stereo partly drawn) [zmm-1-21, ((4S,6R,E)-4,7-dihydroxy-6,10-dimethyl-2-oxo-2,4,5,6,7,8,9,10-octahydro-7,10-epoxycyclodeca[b]furan-3-yl)methyl 3-methyl but-2-enoate]
Effect on pY705STAT3 / STAT3 activity (immunoblot), in words [3]: showed little effects on pY705STAT3

CCCC(CCC)C(=O)OCC1=C2/C(=C\C3(C)CCC(O)(O3)[C@H](C)C[C@@H]2O)OC1=O (stereo partly shown) [zmm-1-80]
Inhibitory potency compared with 22 (CyQuant) [2]: retained the inhibitory potency as 22

CC=C(C)C(=O)OCC1=C2C(=CC3(C)CCC(O)(O3)C(C)CC2O)OC1=O (stereo not drawn) [Compound 4, 8α-hydroxy-13-O-tigloyl-hirsutinolide]
MDA-MB-231 % inhibition [1]: 26.2% | Inhibitory effect on viability of U251MG (tumor) cells, in words [2]: high inhibitory effect | U251MG % inhibition [2]: 80.9% | Inhibitory effect on NIH3T3 fibroblasts, in words ([4]; 5 micromolar): lower inhibitory effect | NIH-3T3 % inhibition [4]: 32.1%

(9Z,12S,13S)-dihydroxy-9-octadecanoic acid [Compound 16]
MDA-MB-231 % inhibition [1]: ne (ne, no effect inhibition) | U251MG % inhibition [2]: ne (ne, no effect inhibition) | NIH-3T3 % inhibition [4]: ne (ne, no effect inhibition)
